Results from patent US10221163B2 (priority 2015, dated 2019).
Read-outs that look alike come from different tables or passages of the source.

What was measured:
[1] = biological target: IMP-1 (Serratia marcescens, UniProt P52699); assay: biochemical; assay type: biochemical; settings: fluorescence assay, CCF2-FA substrate, 2 pM enzyme, 2 hours at 25° C.; read-out: IMP-1 IC50
How it was run: (§1)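 IC50 values derive from 4-parameter fits of percent inhibition against inhibitor concentration on semi-log axes. Activity was monitored by fluorescence with the CCF2-FA substrate after a 2-hour, 25° C incubation of compound, enzyme and substrate.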

[2] = biological target: NDM-1 (Klebsiella pneumoniae, UniProt C7C422); assay: biochemical; assay type: biochemical; settings: fluorescence assay, CCF2-FA substrate, 1 pM enzyme, 2 hours at 25° C.; read-out: NDM-1 IC50
How it was run: as §1

[3] = biological target: VIM-1 (Pseudomonas aeruginosa (strain ATCC 15692 / DSM 22644 / CIP 104116 / JCM 14847 / LMG 12228 / 1C / PRS 101 / PAO1), UniProt A0A0F7KYQ8); assay: biochemical; settings: CCF2-FA substrate, 30 pM enzyme, 2 hours at 25° C.
How it was run: as §1

[4] = system: Escherichia coli expressing NDM-1 (CLB30005, CLB30016); assay type: cell-based; settings: NDM-1 strain, with imipenem 1 μg/ml, 95% inhibition of growth
How it was run: (§2)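 Colonies grown overnight on blood agar at 35° C were suspended in saline, diluted 1:100 into 1.1×CAMHB and dispensed. Imipenem was added to 1 μg/ml, then test compound. After 22 hours to 24 hours at 35° C, absorbance was recorded.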

[5] = system: Klebsiella pneumoniae expressing VIM-1 (IHMA599644); assay type: cell-based; settings: VIM-1 strain IHMA599644, with imipenem 1 μg/ml, 95% inhibition of growth
How it was run: as §2

[6] = system: Serratia marcescens expressing IMP-1 (CL5741); assay type: cell-based; settings: IMP-1 strain CL5741, with imipenem 1 μg/ml, 95% inhibition of growth
How it was run: as §2

[7] = system: Pseudomonas aeruginosa efflux+ (MB9798), IMP-1; assay type: cell-based; parameters: Concentration of metallo-β-lactamase inhibitor which restores susceptibility of efflux + (MB9798) strain to imipenem: unit not given here; settings: efflux+ MB9798; imipenem at 2 μg/mL; in the presence of a class A, C, D serine β-lactamase inhibitor closely related to relebactam
How it was run: (§3)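 Steps: add fixed imipenem and/or ceftazidime (usually CLSI breakpoint) and fixed AmpC-directed class A/C inhibitor to microbroth MIC wells; titrate MBL inhibitor; record concentration regaining susceptibility for each PAO1-derived strain; divide efflux+ by efflux− value.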

[8] = system: Pseudomonas aeruginosa efflux− (MB9799), IMP-1; assay type: cell-based; settings: efflux− MB9799; imipenem at 2 μg/mL; in the presence of a class A, C, D serine β-lactamase inhibitor closely related to relebactam
How it was run: as §3

[9] = system: Pseudomonas aeruginosa MB9798 vs MB9799; settings: fold difference between efflux+ (MB9798) and efflux− (MB9799) strains; imipenem at 2 μg/mL
How it was run: as §3

[10] = fluorescence assay, read-out: VIM-1 IC50

Sequence of IMP-1 (P52699 whole entry, looked up, species assumed): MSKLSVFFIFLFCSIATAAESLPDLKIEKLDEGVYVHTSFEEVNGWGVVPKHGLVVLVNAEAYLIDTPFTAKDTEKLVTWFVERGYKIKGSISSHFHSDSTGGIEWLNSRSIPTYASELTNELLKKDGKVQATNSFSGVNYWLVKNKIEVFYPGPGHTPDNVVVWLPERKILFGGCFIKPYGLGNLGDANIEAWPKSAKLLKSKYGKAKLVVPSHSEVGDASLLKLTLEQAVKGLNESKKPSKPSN
Sequence of NDM-1 (C7C422 whole entry, looked up, species assumed): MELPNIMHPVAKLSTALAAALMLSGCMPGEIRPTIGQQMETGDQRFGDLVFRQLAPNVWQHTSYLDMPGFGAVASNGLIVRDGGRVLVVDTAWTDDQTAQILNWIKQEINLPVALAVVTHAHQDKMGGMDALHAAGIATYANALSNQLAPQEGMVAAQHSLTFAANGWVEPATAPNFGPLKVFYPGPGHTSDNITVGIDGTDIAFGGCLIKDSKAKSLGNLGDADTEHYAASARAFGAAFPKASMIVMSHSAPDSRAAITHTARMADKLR

| Structure (SMILES) | IC50 [1] [nM] | IC50 [2] [nM] | IC50 [3, 10] [nM] | Escherichia coli MITC95 [4] [µM] | Klebsiella pneumoniae MITC95 [5] [µM] | Serratia marcescens MITC95 [6] [µM] | Concentration of metallo-β-lactamase inhibitor which restores susceptibility of efflux + (MB9798) strain to imipenem [7] | Concentration of metallo-β-lactamase inhibitor which restores susceptibility of efflux − (MB9799) strain to imipenem [8] | Efflux ratio [9] | IC50 ([3]; VIM-1 IC50, fluorescence assay) [nM] |
| --- | --- | --- | --- | --- | --- | --- | --- | --- | --- | --- |
| NCCCNS(=O)(=O)c1ccc(-c2cc(F)cc3[nH]c(N)nc23)c(-c2nn[nH]n2)c1S(N)(=O)=O [Example 402] | 0.318 | 0.0524 | 0.159 | 0.3906 | 1.563 | 0.7813 | 0.7813 | 0.7813 | 1.00 |  |
| NCC(CN)NS(=O)(=O)c1ccc(-c2cccc3[nH]nnc23)c(-c2nn[nH]n2)c1S(N)(=O)=O [Example 403] | 0.531 | 0.0633 |  | 1.563 | 3.125 | 1.563 | 1.563 | 1.563 | 1.00 | 0.175 |
| NCC(CN)NS(=O)(=O)c1ccc(-c2ccc(N)nc2)c(-c2nn[nH]n2)c1S(N)(=O)=O [Example 404] | 0.354 | 0.232 | 0.297 | 0.293 | 1.172 | 0.5859 | 1.172 | 0.9766 | 1.20 |  |
| NCC(CN)NS(=O)(=O)c1ccc(-c2ccnc(N)c2)c(-c2nn[nH]n2)c1S(N)(=O)=O [Example 405] | 17.9 | 7.69 | 5.94 | 3.125 | 25 | 6.25 | 25 | 12.5 | 2.00 |  |
| NCC(CN)NS(=O)(=O)c1ccc(-c2ccc3nccn3c2)c(-c2nn[nH]n2)c1S(N)(=O)=O [Example 406] | 0.592 | 0.164 | 0.172 | 0.3906 | 3.125 | 0.7813 | 1.563 | 1.563 | 1.00 |  |
| NC[C@H](CO)NS(=O)(=O)c1ccc(-c2cccc3[nH]nnc23)c(-c2nn[nH]n2)c1S(N)(=O)=O [Example 407] | 1.35 | 0.14 |  | 0.7813 | 3.125 | 1.563 | 3.125 | 1.563 | 2.00 | 0.335 |
| NC[C@H](CO)NS(=O)(=O)c1ccc(-c2ccc(N)nc2)c(-c2nn[nH]n2)c1S(N)(=O)=O [Example 408] | 0.684 | 0.421 | 0.394 | 0.09766 | 3.125 | 0.7813 | 1.563 | 1.563 | 1.00 |  |
| NC[C@@H](CO)NS(=O)(=O)c1ccc(-c2ccc(N)nc2)c(-c2nn[nH]n2)c1S(N)(=O)=O [Example 409] | 0.17 | 0.112 | 0.184 | 0.1953 | 3.125 | 1.563 | 1.563 | 1.563 | 1.00 |  |
